≈ marks a conversion by molar mass, not a printed value. Counter-ions that a name gives are not always drawn. Where a SMILES comes first, the peptide text is derived from it. [ ]: non-standard residue; d: D form. The star is where a group is joined. ξ: configuration not given here. ξF = NC(Cc1ccccc1)C(=O)O; ξhCys = NC(CCS)C(=O)O; tBu = CC(C)(C)*; NHOH = ON*
What was measured:
E. coli = assay: MIC, conventional methods; assay type: cell-based, Escherichia coli
Protocol: (§1) The following L,L-dipeptides were tested for their minimum inhibitory concentrations against three different bacterial strains as set forth in the table below. The testing protocol followed conventional methods and identified a MIC value reported as micrograms per milliliter (μg/mL). Each of the dipeptides had the following structure: Based on the above results, the sidechain of the methionine mimetic was modified to evaluate the effect of such substitution on MIC values. Again, this test used conventional assays to measure the MIC values of each of these modified mimetics.

P. aer. = assay: MIC, conventional methods; assay type: cell-based, Pseudomonas aeruginosa
Protocol: as §1

S. aureus = assay: MIC, conventional methods; assay type: cell-based, Staphylococcus aureus
Protocol: as §1

E. coli (ATTC 8739) = assay: Zone of inhibition test; assay type: cell-based; conditions: for concentration at which a zone of inhibition was shown: E. coli grown in a Petri dish, FIG. 1A/1B; for strength of the zone of inhibition, in words: cpd. A at 50 μg, Ex. 3 at 12.5 μg
Protocol: Compound A was tested against L-phenylalanine-(S)-2-amino-N-hydroxy-4-(methylthio)butanamide hydrochloride (Example 3) in a side-by-side comparison in a conventional zone of inhibition test. In this test, both compounds were compared at various concentrations against E. coli (ATTC 8739) grown in a Petri dish using the antibiotic kanamycin as a control.

[1] = system: Escherichia coli MMX 102/ATCC 25922; assay: Broth microdilution MIC, standard CLSI media, ATCC QC organism; assay type: cell-based
Protocol: (§2) The test organisms were originally received from clinical sources or from the American Type Culture Collection (ATCC, Manassas, Va.). When received, the organisms were subcultured onto an appropriate agar medium. Following incubation, colonies were harvested from the plate and a cell suspension was prepared in broth containing cryoprotectant and frozen at −80° C. Prior to the assay, a frozen vial of the culture was partially thawed and the contents were streaked for isolation onto an appropriate growth medium. The agar plates were incubated overnight at 35° C. Test organisms included staphylococci and enterococci (Table 1), streptococci (Table 2), Enterobacteriaceae (Table 3), lactose non-fermenting Gram-negative bacilli (Table 4), Haemophilus influenzae (Table 5), Neisseria gonorrhoeae (Table 5), and Clostridium difficile (Table 6).
(§3) The standard CLSI broth medium was employed for the purposes of quality control of the comparator drugs for the MIC assay and was only used for testing of relevant ATCC quality control isolates as established by CLSI (1-5).
(§4) MIC values were determined using a broth microdilution method as recommended by CLSI (1-5).
(§5) Column 1 was filled with 300 μL of the investigational and control agents at the appropriate stock concentration (40× of the highest test concentration). The Biomek 2000 was used to make eleven 2-fold serial dilutions to create a “mother plate.” The wells of column 12 contained no drug and served as growth control wells.
(§6) The daughter plates were prepared on the Biomek FX instrument which transferred 5 μL of drug solution from each well of the mother plate to the corresponding well of each daughter plate in a single step.
(§7) Standardized inoculum of each organism was prepared per CLSI methods (1-5). The inoculum for each organism was dispensed into sterile reservoirs divided by length (Beckman Coulter), and the Biomek 2000 was used to inoculate the plates. Daughter plates were placed on the Biomek 2000 work surface reversed so that inoculation took place from low to high drug concentration. The Biomek 2000 delivered 10 PL of standardized inoculum into each well resulting in a target inoculum size of approximately 5×10^5 CFU/mL. The wells of the daughter plates ultimately contained 185 μL of media, 5 μL of drug solution at 40× the test concentration, and 10 μL of bacterial inoculum prepared in media.
(§8) Plates were stacked 3-4 high, covered with a lid on the top plate, placed into plastic bags, and incubated at 35° C. under the appropriate conditions, with C. difficile incubated anaerobically. Plates were viewed post-incubation at 18-24 hr and again at 48 hr from the bottom using a plate viewer. […] MICs were read where visible growth of the organism was inhibited.

[2] = system: Clostridium difficile MMX 4381/ATCC 700057; assay: as above; assay type: cell-based; conditions: Clostridioides difficile, ATCC700057, 48 hr results
Protocol: as §2, §3, §4, §5, §6, §7, §8

[3] = system: Pseudomonas aeruginosa MMX 103/ATCC 27853; assay: as above; assay type: cell-based
Protocol: as §2, §3, §4, §5, §6, §7, §8

[4] = system: Neisseria gonorrhoeae MMX 683/ATCC 49226; assay: as above; assay type: cell-based
Protocol: as §2, §3, §4, §5, §6, §7, §8

[5] = system: Enterococcus faecalis MMX 101/ATCC 29212; assay: as above; assay type: cell-based
Protocol: as §2, §3, §4, §5, §6, §7, §8

[6] = Table 2, side chain Q of the methionine mimetic varied
[7] = Table 1, L,L-dipeptides varied in T

SMILES: CC(C)(C)SCCC(NC(=O)CN)C(=O)NO (stereo not shown) [L] (H-Gly-[ξhCys](tBu)-{NHOH})
- MIC E. coli (E. coli; [6]): 207 µg/mL (≈ 786 µM)
- MIC P. aer. (P. aer.; [6]): 624 µg/mL (≈ 2370 µM)
- MIC S. aur. (S. aureus; [6]): 77 µg/mL (≈ 292 µM)

SMILES: CSCC[C@H](NC(=O)[C@@H](N)C(C)C)C(=O)NO [C] (H-Val-Met-{NHOH})
- MIC E. coli (E. coli; [7]): 520 µg/mL (≈ 1970 µM)
- MIC P. aer. (P. aer.; [7]): 833 µg/mL (≈ 3160 µM)
- MIC S. aur. (S. aureus; [7]): 416 µg/mL (≈ 1580 µM)

SMILES: CSCC[C@H](NC(=O)C(N)Cc1ccccc1)C(=O)NO (stereo partly drawn) [Example 3, L-phenylalanine-(S)-2-amino-N-hydroxy-4-(methylthio)butanamide hydrochloride] (H-[ξF]-Met-{NHOH})
- concentration at which a zone of inhibition was shown (E. coli (ATTC 8739)): 12.5 µg
- strength of the zone of inhibition, in words (E. coli (ATTC 8739)): substantially stronger than the zone of inhibition for cpd. A at 50 μg

SMILES: CCCCC(NC(=O)CN)C(=O)NO (stereo not shown) [I]
- MIC E. coli (E. coli; [6]): 69 µg/mL (≈ 339 µM)
- MIC P. aer. (P. aer.; [6]): 520 µg/mL (≈ 2560 µM)
- MIC S. aur. (S. aureus; [6]): 51 µg/mL (≈ 251 µM)

SMILES: CSCC[C@H](NC(=O)[C@@H](N)CCC(=O)O)C(=O)NO [Compound F] (H-Glu-Met-{NHOH})
- MIC E. coli (E. coli; [7]): 554 µg/mL (≈ 1890 µM)
- MIC P. aer. (P. aer.; [7]): 1660 µg/mL (≈ 5660 µM)
- MIC S. aur. (S. aureus; [7]): 312 µg/mL (≈ 1060 µM)

SMILES: CSCC[C@H](NC(=O)[C@@H]1CCCN1)C(=O)NO [D] (H-Pro-Met-{NHOH})
- MIC E. coli (E. coli; [7]): 312 µg/mL (≈ 1190 µM)
- MIC P. aer. (P. aer.; [7]): 270 µg/mL (≈ 1030 µM)
- MIC S. aur. (S. aureus; [7]): 125 µg/mL (≈ 478 µM)

SMILES: CS(=O)(=O)CCC(NC(=O)CN)C(=O)NO (stereo not shown) [H]
- MIC E. coli (E. coli; [6]): 208 µg/mL (≈ 821 µM)
- MIC P. aer. (P. aer.; [6]): 416 µg/mL (≈ 1640 µM)
- MIC S. aur. (S. aureus; [6]): 104 µg/mL (≈ 411 µM)

SMILES: C/C(=C\C(=O)OCCCCCCCCC(=O)O)C[C@@H]1OC[C@H](C[C@@H]2O[C@H]2[C@@H](C)[C@H](C)O)[C@@H](O)[C@H]1O [MUP, mupirocin]
- MIC ([1]; ATCC25922, 24 hr results): > 256 µg/mL
- MIC ([1]; ATCC25922, 48 hr results): > 256 µg/mL
- MIC [2]: > 256 µg/mL
- MIC ([3]; ATCC27853, 24 hr results): > 256 µg/mL
- MIC ([3]; ATCC27853, 48 hr results): > 256 µg/mL
- MIC ([4]; ATCC49226, 24 hr results): > 256 µg/mL
- MIC ([4]; ATCC49226, 48 hr results): > 256 µg/mL
- MIC ([5]; ATCC29212, 24 hr results): 256 µg/mL (≈ 511 µM)
- MIC ([5]; ATCC29212, 48 hr results): > 256 µg/mL

SMILES: CSCC[C@H](NC(=O)CN)C(=O)NO [Compound A]
- MIC E. coli (E. coli; [7]): 138 µg/mL (≈ 624 µM)
- MIC E. coli (E. coli; [6]): 138 µg/mL (≈ 624 µM)
- MIC P. aer. (P. aer.; [7]): 647 µg/mL (≈ 2920 µM)
- MIC P. aer. (P. aer.; [6]): 647 µg/mL (≈ 2920 µM)
- MIC S. aur. (S. aureus; [7]): 84 µg/mL (≈ 380 µM)
- MIC S. aur. (S. aureus; [6]): 84 µg/mL (≈ 380 µM)
- concentration at which a zone of inhibition was shown (E. coli (ATTC 8739)): 50 µg
- strength of the zone of inhibition, in words (E. coli (ATTC 8739)): quite weak

From patent publication US20180282271A1, “ANTIBIOTIC AMINO ACID MIMETICS” (priority 2017, published 2018)
